Data reported in patent US12077503B2, “Substituted cyclic amides and their use as herbicides” (FMC CORPORATION, priority 2015, dated 2024).

Assays:
Format in all cases: in vivo
[1] = test system: barnyardgrass (Echinochloa crus-galli); assay: Test G Pre-Emergence Protocol; settings: Echinochloa crus-galli, pre-emergence, 312 h, evaluated after 13 days; for pest or weed control at 15.625 g/ha: 15.625 g ai/ha, read-out: Barnyard grass damage rating (100=total damage to plant; 0=no damage to plant); for pest or weed control at 62.5 g/ha: 62.5 g ai/ha, 100=total damage to plant, 0=no damage to plant, read-out: plant damage rating, Barnyardgrass; for pest or weed control at 250 g/ha: 250 g ai/ha, read-out: Barnyardgrass damage rating (100=total damage to plant; 0=no damage to plant)
In short: (§1)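 Scores are visual damage ratings from 0 (no damage) to 100 (total plant kill), taken 13 days after treatment. Compound was sprayed one day post-sowing at 15.625, 62.5 or 250 g/ha in 50:50 acetone/water with 0.5% Tween 20.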

[2] = test system: corn (Zea mays); assay: Test G Pre-Emergence Protocol; settings: Zea mays, pre-emergence, 312 h, evaluated after 13 days; for plant injury at 15.625 g/ha: 15.625 g ai/ha; for plant injury at 15.625 g/ha / plant injury at 250 g/ha: read-out: Corn damage rating (100=total damage to plant; 0=no damage to plant); for plant injury at 62.5 g/ha: 62.5 g ai/ha, 100=total damage to plant, 0=no damage to plant, read-out: plant damage rating, Corn; for plant injury at 250 g/ha: 250 g ai/ha
In short: as §1

[3] = test system: giant foxtail (Setaria faberi); assay: Test G Pre-Emergence Protocol; settings: Setaria faberi, pre-emergence, 312 h, evaluated after 13 days; for pest or weed control at 15.625 g/ha: 15.625 g ai/ha; for pest or weed control at 15.625 g/ha / pest or weed control at 250 g/ha: read-out: Foxtail, Giant damage rating (100=total damage to plant; 0=no damage to plant); for pest or weed control at 62.5 g/ha: 62.5 g ai/ha, 100=total damage to plant, 0=no damage to plant, read-out: plant damage rating, Foxtail, Giant; for pest or weed control at 250 g/ha: 250 g ai/ha
In short: as §1

[4] = test system: ivy-leaved morning glory (Ipomoea hederacea); assay: Test G Pre-Emergence Protocol; settings: Ipomoea, pre-emergence, 312 h, evaluated after 13 days; for pest or weed control at 15.625 g/ha: 15.625 g ai/ha, read-out: Morning-glory, Ivy-leaved damage rating (100=total damage to plant; 0=no damage to plant); for pest or weed control at 62.5 g/ha: 62.5 g ai/ha, 100=total damage to plant, 0=no damage to plant, read-out: plant damage rating, Morningglory, Ivy-leaved; for pest or weed control at 250 g/ha: 250 g ai/ha, read-out: Morningglory, Ivy-leaved damage rating (100=total damage to plant; 0=no damage to plant)
In short: as §1

[5] = test system: redroot pigweed (Amaranthus retroflexus); assay: Test G Pre-Emergence Protocol; settings: Amaranthus retroflexus, pre-emergence, 312 h, evaluated after 13 days; for pest or weed control at 15.625 g/ha: 15.625 g ai/ha; for pest or weed control at 15.625 g/ha / pest or weed control at 250 g/ha: read-out: Pigweed, Redroot damage rating (100=total damage to plant; 0=no damage to plant); for pest or weed control at 62.5 g/ha: 62.5 g ai/ha, 100=total damage to plant, 0=no damage to plant, read-out: plant damage rating, Pigweed, Redroot; for pest or weed control at 250 g/ha: 250 g ai/ha
In short: as §1

[6] = test system: velvetleaf (Abutilon theophrasti); assay: Test G Pre-Emergence Protocol; settings: Abutilon theophrasti, pre-emergence, 312 h, evaluated after 13 days; for pest or weed control at 15.625 g/ha: 15.625 g ai/ha; for pest or weed control at 15.625 g/ha / pest or weed control at 250 g/ha: read-out: Velvetleaf damage rating (100=total damage to plant; 0=no damage to plant); for pest or weed control at 62.5 g/ha: 62.5 g ai/ha, 100=total damage to plant, 0=no damage to plant, read-out: plant damage rating, Velvetleaf; for pest or weed control at 250 g/ha: 250 g ai/ha
In short: as §1

[7] = test system: barnyardgrass (Echinochloa crus-galli); assay: Test G Post-Emergence Protocol; settings: Echinochloa crus-galli, post-emergence, 312 h; for pest or weed control at 15.625 g/ha: 15.625 g ai/ha, evaluated after 13 days (100=total damage to plant; 0=no damage to plant), read-out: Barnyardgrass damage rating; for pest or weed control at 62.5 g/ha: 62.5 g ai/ha, read-out: Barnyardgrass damage rating (100=total damage to plant; 0=no damage to plant); for pest or weed control at 62.5 g/ha / pest or weed control at 250 g/ha: evaluated after 13 days; for pest or weed control at 250 g/ha: 250 g ai/ha, read-out: damage to plant, Barnyardgrass (100=total damage to plant; 0=no damage to plant)
In short: (§2)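 Foliar application was made 8 days after sowing, using an aqueous spray of the active in acetone/water (50:50) with 0.5% Tween 20, at doses of 15.625, 62.5 or 250 g/ha. Injury was assessed 13 days later, where 100 meant the plant was fully damaged.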

[8] = test system: corn (Zea mays); assay: Test G Post-Emergence Protocol; settings: Zea mays, post-emergence, 312 h; for plant injury at 15.625 g/ha: 15.625 g ai/ha, evaluated after 13 days (100=total damage to plant; 0=no damage to plant), read-out: Corn damage rating; for plant injury at 62.5 g/ha: 62.5 g ai/ha, read-out: Corn damage rating (100=total damage to plant; 0=no damage to plant); for plant injury at 62.5 g/ha / plant injury at 250 g/ha: evaluated after 13 days; for plant injury at 250 g/ha: 250 g ai/ha, read-out: damage to plant, Corn (100=total damage to plant; 0=no damage to plant)
In short: as §2

[9] = test system: giant foxtail (Setaria faberi); assay: Test G Post-Emergence Protocol; settings: Setaria faberi, post-emergence, 312 h; for pest or weed control at 15.625 g/ha: 15.625 g ai/ha, evaluated after 13 days (100=total damage to plant; 0=no damage to plant), read-out: Foxtail, Giant damage rating; for pest or weed control at 62.5 g/ha: 62.5 g ai/ha, read-out: Foxtail, Giant damage rating (100=total damage to plant; 0=no damage to plant); for pest or weed control at 62.5 g/ha / pest or weed control at 250 g/ha: evaluated after 13 days; for pest or weed control at 250 g/ha: 250 g ai/ha, read-out: damage to plant, Foxtail, Giant (100=total damage to plant; 0=no damage to plant)
In short: as §2

[10] = test system: ivy-leaved morning glory (Ipomoea hederacea); assay: Test G Post-Emergence Protocol; settings: Ipomoea, post-emergence, 312 h; for pest or weed control at 15.625 g/ha: 15.625 g ai/ha, evaluated after 13 days (100=total damage to plant; 0=no damage to plant), read-out: Morningglory, Ivy-leaved damage rating; for pest or weed control at 62.5 g/ha: 62.5 g ai/ha, read-out: Morningglory, Ivy-leaved damage rating (100=total damage to plant; 0=no damage to plant); for pest or weed control at 62.5 g/ha / pest or weed control at 250 g/ha: evaluated after 13 days; for pest or weed control at 250 g/ha: 250 g ai/ha, read-out: damage to plant, Morningglory, Ivy-leaved (100=total damage to plant; 0=no damage to plant)
In short: as §2

[11] = test system: redroot pigweed (Amaranthus retroflexus); assay: Test G Post-Emergence Protocol; settings: Amaranthus retroflexus, post-emergence, 312 h; for pest or weed control at 15.625 g/ha: 15.625 g ai/ha, evaluated after 13 days (100=total damage to plant; 0=no damage to plant), read-out: Pigweed, Redroot damage rating; for pest or weed control at 62.5 g/ha: 62.5 g ai/ha, read-out: Pigweed, Redroot damage rating (100=total damage to plant; 0=no damage to plant); for pest or weed control at 62.5 g/ha / pest or weed control at 250 g/ha: evaluated after 13 days; for pest or weed control at 250 g/ha: 250 g ai/ha, read-out: damage to plant, Pigweed, Redroot (100=total damage to plant; 0=no damage to plant)
In short: as §2

[12] = test system: velvetleaf (Abutilon theophrasti); assay: Test G Post-Emergence Protocol; settings: Abutilon theophrasti, post-emergence, 312 h; for pest or weed control at 15.625 g/ha: 15.625 g ai/ha, evaluated after 13 days (100=total damage to plant; 0=no damage to plant), read-out: Velvetleaf damage rating; for pest or weed control at 62.5 g/ha: 62.5 g ai/ha, read-out: Velvetleaf damage rating (100=total damage to plant; 0=no damage to plant); for pest or weed control at 62.5 g/ha / pest or weed control at 250 g/ha: evaluated after 13 days; for pest or weed control at 250 g/ha: 250 g ai/ha, read-out: damage to plant, Velvetleaf (100=total damage to plant; 0=no damage to plant)
In short: as §2

Structure (SMILES)	pest or weed control at 15.625 g/ha [1] [%]	pest or weed control at 62.5 g/ha [1] [%]	pest or weed control at 250 g/ha [1] [%]	plant injury at 15.625 g/ha [2] [%]	plant injury at 62.5 g/ha [2] [%]	plant injury at 250 g/ha [2] [%]	pest or weed control at 15.625 g/ha [3] [%]	pest or weed control at 62.5 g/ha [3] [%]	pest or weed control at 250 g/ha [3] [%]	pest or weed control at 15.625 g/ha [4] [%]	pest or weed control at 62.5 g/ha [4] [%]	pest or weed control at 250 g/ha [4] [%]	pest or weed control at 15.625 g/ha [5] [%]	pest or weed control at 62.5 g/ha [5] [%]	pest or weed control at 250 g/ha [5] [%]	pest or weed control at 15.625 g/ha [6] [%]	pest or weed control at 62.5 g/ha [6] [%]	pest or weed control at 250 g/ha [6] [%]	pest or weed control at 15.625 g/ha [7] [%]	pest or weed control at 62.5 g/ha [7] [%]	further results
CN1C[C@@H](c2ccc(C(F)(F)F)cc2)[C@H](C(=O)Nc2cnccn2)C1=O (racemic) [Compound 1572]	0	0	0	0	0	0	0	0	0	0	0	0	0	0	0	0	0	0	0	0	pest or weed control at 250 g/ha [7]: 0%; plant injury at 15.625 g/ha [8]: 0%; plant injury at 62.5 g/ha [8]: 0%; plant injury at 250 g/ha [8]: 0%; pest or weed control at 15.625 g/ha [9]: 0%; pest or weed control at 62.5 g/ha [9]: 0%; pest or weed control at 250 g/ha [9]: 40%; pest or weed control at 15.625 g/ha [10]: 0%; pest or weed control at 62.5 g/ha [10]: 10%; pest or weed control at 250 g/ha [10]: 30%; pest or weed control at 15.625 g/ha [11]: 0%; pest or weed control at 62.5 g/ha [11]: 0%; pest or weed control at 250 g/ha [11]: 20%; pest or weed control at 15.625 g/ha [12]: 0%; pest or weed control at 62.5 g/ha [12]: 0%; pest or weed control at 250 g/ha [12]: 0%
Cc1cc(Cl)ncc1NC(=O)[C@@H]1C(=O)N(C)C[C@H]1c1ccc(C(F)(F)F)cc1 (racemic) [Compound 1578]	0	0	0	0	0	10	0	0	60	0	0	0	0	0	20	0	0	10	0	20	pest or weed control at 250 g/ha [7]: 20%; plant injury at 15.625 g/ha [8]: 0%; plant injury at 62.5 g/ha [8]: 0%; plant injury at 250 g/ha [8]: 10%; pest or weed control at 15.625 g/ha [9]: 0%; pest or weed control at 62.5 g/ha [9]: 10%; pest or weed control at 250 g/ha [9]: 60%; pest or weed control at 15.625 g/ha [10]: 0%; pest or weed control at 62.5 g/ha [10]: 10%; pest or weed control at 250 g/ha [10]: 30%; pest or weed control at 15.625 g/ha [11]: 0%; pest or weed control at 62.5 g/ha [11]: 20%; pest or weed control at 250 g/ha [11]: 30%; pest or weed control at 15.625 g/ha [12]: 20%; pest or weed control at 62.5 g/ha [12]: 10%; pest or weed control at 250 g/ha [12]: 20%
